According to the SangsterLogP compilation:

Assay: method code SF-AS, from Dearden, C.; O'Hara, H. (1978). Partition coefficients of some alkyl derivatives of 4-acetamidophenol. Eur J Med Chem, 13(5)415-419.

| logP | Structure (SMILES) |
| --- | --- |
| 1.31 | CCc1cc(NC(C)=O)ccc1O |
| 0.79 | CC(=O)Nc1ccc(O)c(C)c1 |
| 3.18 | CC(=O)Nc1cc(C(C)(C)C)c(O)c(C(C)(C)C)c1 |
| 0.57 | CC(=O)Nc1ccc(O)c(C)c1C |
| 0.17 | CC(=O)Nc1ccc(O)cc1C |
| 1.71 | CC(=O)Nc1ccc(O)c(C(C)C)c1 |
| 2.36 | CC(=O)Nc1ccc(O)c(C(C)(C)C)c1 |

Further lines, the molecule ahead of its results:

| Structure (SMILES) | logP |
| --- | --- |
| CC(=O)Nc1c(C)c(C)c(O)c(C)c1C | 0.95 |
| CC(=O)Nc1c(C)cc(O)c(C)c1C | 0.75 |
| CC(=O)Nc1cc(C)c(O)cc1C | 0.6 |
| CCc1cc(NC(C)=O)cc(CC)c1O | 1.87 |
| CC(=O)Nc1c(C)cc(O)cc1C | 0.31 |
| CC(=O)Nc1cc(C)c(O)c(C)c1 | 1.11 |
| CC(=O)Nc1cc(C)c(O)c(C)c1C | 0.82 |
